This note sets out measurements from PMC4184702 (Pharmacology Research & Perspectives, 2014).

Entries after “also recorded” stand apart in the source; their conditions may differ.

Data set [1] addresses T1, SERT: Serotonin Transporter (Homo sapiens, UniProt P31645).
T1 construct: purchased NIMH Psychoactive Drug Screening Program (PDSP)
Kind of data set: PDSP primary binding, SERT. Particulars: n = 4, read-out: Inhibition (primary binding competition efficacy), SERT. The method, then:
(§1) For experimental details, please refer to the Psychoactive Drug Screening Program (PDSP) web site http://pdsp.med.unc.edu/.
(§2) ^a The default concentration for primary binding experiments is 10 µM (n = 4). ^b Negative inhibition represents a stimulation of binding. ^c BZPR: Benzodiazepine Receptors (rat brain site). ^d DOR: Delta Opioid Receptor; KOR: Kappa Opioid Receptor; MOR: Mu Opioid Receptor. ^e DAT: Dopamine Transporter; NET: Norepinephrine Transporter; SERT: Serotonin Transporter. ^f NMDA: N-methyl-D-aspartate receptor.

The target of data set [2] is T2, M1 muscarinic receptor (Homo sapiens, UniProt P11229).
T2 construct: purchased NIMH Psychoactive Drug Screening Program (PDSP)
Nature of the data set: PDSP primary binding, M1. Particulars: n = 4, read-out: Inhibition (primary binding competition efficacy), M1. The method, then:
as §1, §2

The target in data set [3] is T3, H2 histamine receptor (Homo sapiens, UniProt P25021).
T3 construct: purchased NIMH Psychoactive Drug Screening Program (PDSP)
Nature of the data set: PDSP primary binding, H2. The following applies: n = 4, read-out: Inhibition (primary binding competition efficacy), H2. The protocol: as §1, §2

The target of data set [4] is T4, human α7-nAChRs (Homo sapiens, UniProt P36544).
T4 construct: expressed in transfected cells; host or cells: SH-EP1 human epithelial cells (SH-EP1-hα7)
Nature of the data set: Whole-cell current recording, SH-EP1-hα7 cells. It is filed as cell-based. Particulars: 1 μmol/L. The method, then: Glass microelectrodes made with 3–5 MΩ resistance between pipette and extracellular solutions were used to obtain >1 GΩ seals on the cell surface just prior to conversion into standard whole-cell current recording mode by applying suction to the pipette. After allowing exchange between the pipette solution and the cytosol for 5 10 min, cells with attached pipettes were lifted gently from the bottom of the culture dish via micromanipulation of the pipette to improve kinetics of solution exchange around the cell. Access resistance (Ra) was measured and accepted if it was less than 20 MΩ. Pipette and whole-cell capacitance were both minimized, and series resistance was compensated routinely to 80%. Cells were voltage-clamped at −60 mV, and inward currents induced by indicated nicotinic agonists at the specified concentrations were measured (200B amplifier; Molecular Devices, Sunnyvale, CA). […] Data acquisition and analyses were conducted using pClamp9.2 (Molecular Devices), and results were plotted by using Origin 5.0 (OriginLab Corp., North Hampton, MA). All experiments were performed at room temperature (22 ± 1°C).
The external solution for SH-EP1 cell recording contained 120 mmol/L NaCl, 5 mmol/L KCl, 2 mmol/L MgCl2, 2 mmol/L CaCl2, 25 mmol/L D-glucose, and 10 mmol/L HEPES<< HEPES >>, pH 7.4 (Tris-base). For conventional whole-cell recording, the pipette solution contained 110 mmol/L Tris-phosphate dibasic, 28 mmol/L Tris-base, 11 mmol/L EGTA<< EGTA >>, 2 mmol/L MgCl2, 0.5 mmol/L CaCl2, and 4 mmol/L Na-ATP at pH 7.3. Drugs (standard compounds were obtained from Sigma Chemical, St. Louis, MO) were delivered to the recorded cell by a computer-controlled perfusion system (SF-77B Perfusion Fast Step, Warner Instruments Incorporated, A Harvard Bioscience Company, Holliston, MA), allowing the recorded cell can be completely surrounded by the applied drug within 20 msec. The interval between drug applications (2 min) was optimized specifically to ensure stability of nAChR responsiveness (without functional rundown).

For data set [5], the target named is T5, 5-HT1A (Homo sapiens, UniProt P08908).
T5 construct: purchased NIMH Psychoactive Drug Screening Program (PDSP)
Nature of the data set: PDSP primary binding, 5-HT1A. Particulars: n = 4, read-out: Inhibition (primary binding competition efficacy), 5-HT1A. The protocol:
as §1, §2

The target of data set [6] is T6, D1 dopamine receptor (Homo sapiens, UniProt P21728).
T6 construct: purchased NIMH Psychoactive Drug Screening Program (PDSP)
Kind of data set: PDSP primary binding, D1. Particulars: n = 4, read-out: Inhibition (primary binding competition efficacy), D1. The protocol: as §1, §2

Data set [7] deals with T7, D3 dopamine receptor (Homo sapiens, UniProt P35462).
T7 construct: purchased NIMH Psychoactive Drug Screening Program (PDSP)
Nature of the data set: PDSP primary binding, D3. Particulars: n = 4, read-out: Inhibition (primary binding competition efficacy), D3. The method, then: as §1, §2

Data set [8] deals with T8, CYP2C9 (Homo sapiens, UniProt P11712).
T8 construct: from tissue; host or cells: human liver microsomes (HLM)
Nature of the data set: CYP2C9 inhibition, HLM, diclofenac substrate. It is filed as in vitro ADME. Particulars: 1.0E-05 M. An excerpt:
Supplement prp20002-e00026-sd1.doc, table 3: Table 3.

Data set [9] addresses T9, α1B adrenergic receptor (Homo sapiens, UniProt P35368).
T9 construct: purchased NIMH Psychoactive Drug Screening Program (PDSP)
Kind of data set: PDSP primary binding, α1B. The following applies: n = 4, read-out: Inhibition (primary binding competition efficacy), α1B. The method, then:
as §1, §2

Data set [10] deals with T10, M2 muscarinic receptor (Homo sapiens, UniProt P08172).
T10 construct: purchased NIMH Psychoactive Drug Screening Program (PDSP)
Kind of data set: PDSP primary binding, M2. The following applies: n = 4, read-out: Inhibition (primary binding competition efficacy), M2. The protocol: as §1, §2

In data set [11] the target is T11, β2 adrenergic receptor (Homo sapiens, UniProt P07550).
T11 construct: purchased NIMH Psychoactive Drug Screening Program (PDSP)
Nature of the data set: PDSP primary binding, β2. The following applies: n = 4, read-out: Inhibition (primary binding competition efficacy), β2. The protocol:
as §1, §2

Data set [12] has as its target hERG (human ether-a-go-go-related gene) (Homo sapiens, UniProt Q12809). Nature of the data set: hERG inhibition assay. The following applies: in words. (hERG is a cardiac potassium channel; its block is linked to QT prolongation.)
Data set [13] has as its target T12, β3 adrenergic receptor (Homo sapiens, UniProt P13945).
T12 construct: purchased NIMH Psychoactive Drug Screening Program (PDSP)
Kind of data set: PDSP primary binding, β3. The following applies: n = 4, read-out: Inhibition (primary binding competition efficacy), β3. The method, then: as §1, §2

Data set [14] deals with T13, 5-HT7 (Homo sapiens, UniProt P34969).
T13 construct: purchased NIMH Psychoactive Drug Screening Program (PDSP)
Nature of the data set: PDSP primary binding, 5-HT7. The following applies: n = 4, read-out: Inhibition (primary binding competition efficacy), 5-HT7. The method, then: as §1, §2

T4 sequence (P36544 23-502): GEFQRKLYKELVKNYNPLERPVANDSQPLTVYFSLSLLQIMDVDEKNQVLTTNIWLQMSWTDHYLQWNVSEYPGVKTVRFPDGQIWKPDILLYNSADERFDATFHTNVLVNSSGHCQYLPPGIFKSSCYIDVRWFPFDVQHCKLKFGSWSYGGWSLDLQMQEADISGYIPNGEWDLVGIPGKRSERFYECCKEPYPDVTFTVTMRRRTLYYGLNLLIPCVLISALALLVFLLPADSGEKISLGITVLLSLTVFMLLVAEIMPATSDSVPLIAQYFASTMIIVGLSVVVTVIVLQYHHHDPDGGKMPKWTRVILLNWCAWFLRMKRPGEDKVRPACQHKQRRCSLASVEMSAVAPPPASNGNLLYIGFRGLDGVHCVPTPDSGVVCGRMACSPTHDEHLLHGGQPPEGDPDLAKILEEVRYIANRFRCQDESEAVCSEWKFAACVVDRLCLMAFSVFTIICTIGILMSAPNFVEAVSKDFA
T10 sequence (P08172 whole entry): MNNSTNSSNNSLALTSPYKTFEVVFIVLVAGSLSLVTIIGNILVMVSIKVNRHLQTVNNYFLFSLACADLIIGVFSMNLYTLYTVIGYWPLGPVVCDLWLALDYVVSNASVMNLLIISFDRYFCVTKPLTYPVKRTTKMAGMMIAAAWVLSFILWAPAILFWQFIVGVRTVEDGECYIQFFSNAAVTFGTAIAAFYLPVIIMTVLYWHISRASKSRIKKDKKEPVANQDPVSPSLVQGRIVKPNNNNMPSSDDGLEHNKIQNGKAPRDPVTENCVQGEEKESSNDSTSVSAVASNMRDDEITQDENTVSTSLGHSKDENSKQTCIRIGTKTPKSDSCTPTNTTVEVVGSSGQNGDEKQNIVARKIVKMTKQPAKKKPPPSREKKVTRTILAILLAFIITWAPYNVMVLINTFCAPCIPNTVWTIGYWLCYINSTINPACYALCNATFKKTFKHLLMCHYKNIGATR
T6 sequence (P21728 whole entry): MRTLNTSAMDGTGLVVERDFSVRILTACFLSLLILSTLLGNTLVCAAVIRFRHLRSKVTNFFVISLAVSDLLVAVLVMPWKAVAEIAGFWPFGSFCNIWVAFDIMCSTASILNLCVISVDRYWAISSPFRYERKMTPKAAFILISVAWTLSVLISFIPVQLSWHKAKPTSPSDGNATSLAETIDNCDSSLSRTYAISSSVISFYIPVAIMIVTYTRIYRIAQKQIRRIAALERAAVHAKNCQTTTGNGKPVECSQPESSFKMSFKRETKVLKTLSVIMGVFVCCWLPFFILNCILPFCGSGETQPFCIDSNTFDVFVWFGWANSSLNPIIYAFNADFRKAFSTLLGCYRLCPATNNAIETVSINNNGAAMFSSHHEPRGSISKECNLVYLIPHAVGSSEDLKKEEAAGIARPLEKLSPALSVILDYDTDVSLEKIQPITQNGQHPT
T11 sequence (P07550 whole entry): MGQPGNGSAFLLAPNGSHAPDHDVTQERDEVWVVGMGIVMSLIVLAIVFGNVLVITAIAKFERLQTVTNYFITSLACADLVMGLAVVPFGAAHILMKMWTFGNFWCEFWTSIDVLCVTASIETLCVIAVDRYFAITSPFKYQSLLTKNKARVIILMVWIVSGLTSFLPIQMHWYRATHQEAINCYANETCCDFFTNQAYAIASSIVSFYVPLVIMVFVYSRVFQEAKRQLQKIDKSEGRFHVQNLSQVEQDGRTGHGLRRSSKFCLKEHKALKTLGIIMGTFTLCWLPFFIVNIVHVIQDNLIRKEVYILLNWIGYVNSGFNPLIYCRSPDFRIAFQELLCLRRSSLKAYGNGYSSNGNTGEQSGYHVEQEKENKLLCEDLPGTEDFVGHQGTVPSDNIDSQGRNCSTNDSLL
T12 sequence (P13945 whole entry): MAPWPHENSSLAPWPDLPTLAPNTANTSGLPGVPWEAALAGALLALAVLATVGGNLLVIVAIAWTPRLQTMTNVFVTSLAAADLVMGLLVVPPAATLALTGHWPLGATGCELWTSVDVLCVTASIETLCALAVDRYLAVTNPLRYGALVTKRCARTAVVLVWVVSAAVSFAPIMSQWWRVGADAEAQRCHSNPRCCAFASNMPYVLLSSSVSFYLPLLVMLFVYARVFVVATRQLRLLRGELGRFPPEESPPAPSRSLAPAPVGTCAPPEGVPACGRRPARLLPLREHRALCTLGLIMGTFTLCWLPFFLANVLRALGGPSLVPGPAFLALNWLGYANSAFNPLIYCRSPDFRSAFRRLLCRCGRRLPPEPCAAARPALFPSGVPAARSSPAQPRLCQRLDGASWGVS
T13 sequence (P34969 whole entry): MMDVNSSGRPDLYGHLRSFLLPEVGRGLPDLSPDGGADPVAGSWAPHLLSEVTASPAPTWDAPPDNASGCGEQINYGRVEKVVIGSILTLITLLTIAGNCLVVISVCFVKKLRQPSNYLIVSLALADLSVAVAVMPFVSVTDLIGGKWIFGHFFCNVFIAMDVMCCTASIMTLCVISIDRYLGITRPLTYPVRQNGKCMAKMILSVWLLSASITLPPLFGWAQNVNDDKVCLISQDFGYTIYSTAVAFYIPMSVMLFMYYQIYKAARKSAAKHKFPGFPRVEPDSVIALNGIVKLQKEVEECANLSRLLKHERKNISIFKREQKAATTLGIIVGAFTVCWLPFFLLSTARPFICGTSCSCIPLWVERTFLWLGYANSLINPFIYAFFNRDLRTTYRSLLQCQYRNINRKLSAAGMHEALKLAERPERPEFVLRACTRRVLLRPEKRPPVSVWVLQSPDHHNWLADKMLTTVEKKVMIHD
T9 sequence (P35368 whole entry): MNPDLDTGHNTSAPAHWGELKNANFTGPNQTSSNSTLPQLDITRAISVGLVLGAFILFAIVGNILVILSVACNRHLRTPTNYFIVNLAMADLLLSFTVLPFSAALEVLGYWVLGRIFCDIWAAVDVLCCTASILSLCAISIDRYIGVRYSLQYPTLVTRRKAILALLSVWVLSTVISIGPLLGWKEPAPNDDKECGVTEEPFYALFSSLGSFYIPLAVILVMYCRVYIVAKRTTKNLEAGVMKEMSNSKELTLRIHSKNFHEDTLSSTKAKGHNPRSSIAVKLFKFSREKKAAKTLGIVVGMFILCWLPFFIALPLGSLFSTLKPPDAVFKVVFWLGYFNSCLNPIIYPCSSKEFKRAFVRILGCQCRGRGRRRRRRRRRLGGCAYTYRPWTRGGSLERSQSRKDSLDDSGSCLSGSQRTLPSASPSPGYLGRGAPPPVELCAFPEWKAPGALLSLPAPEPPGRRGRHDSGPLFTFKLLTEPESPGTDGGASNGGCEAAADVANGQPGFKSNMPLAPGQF
hERG (human ether-a-go-go-related gene), sequence (Q12809 whole entry): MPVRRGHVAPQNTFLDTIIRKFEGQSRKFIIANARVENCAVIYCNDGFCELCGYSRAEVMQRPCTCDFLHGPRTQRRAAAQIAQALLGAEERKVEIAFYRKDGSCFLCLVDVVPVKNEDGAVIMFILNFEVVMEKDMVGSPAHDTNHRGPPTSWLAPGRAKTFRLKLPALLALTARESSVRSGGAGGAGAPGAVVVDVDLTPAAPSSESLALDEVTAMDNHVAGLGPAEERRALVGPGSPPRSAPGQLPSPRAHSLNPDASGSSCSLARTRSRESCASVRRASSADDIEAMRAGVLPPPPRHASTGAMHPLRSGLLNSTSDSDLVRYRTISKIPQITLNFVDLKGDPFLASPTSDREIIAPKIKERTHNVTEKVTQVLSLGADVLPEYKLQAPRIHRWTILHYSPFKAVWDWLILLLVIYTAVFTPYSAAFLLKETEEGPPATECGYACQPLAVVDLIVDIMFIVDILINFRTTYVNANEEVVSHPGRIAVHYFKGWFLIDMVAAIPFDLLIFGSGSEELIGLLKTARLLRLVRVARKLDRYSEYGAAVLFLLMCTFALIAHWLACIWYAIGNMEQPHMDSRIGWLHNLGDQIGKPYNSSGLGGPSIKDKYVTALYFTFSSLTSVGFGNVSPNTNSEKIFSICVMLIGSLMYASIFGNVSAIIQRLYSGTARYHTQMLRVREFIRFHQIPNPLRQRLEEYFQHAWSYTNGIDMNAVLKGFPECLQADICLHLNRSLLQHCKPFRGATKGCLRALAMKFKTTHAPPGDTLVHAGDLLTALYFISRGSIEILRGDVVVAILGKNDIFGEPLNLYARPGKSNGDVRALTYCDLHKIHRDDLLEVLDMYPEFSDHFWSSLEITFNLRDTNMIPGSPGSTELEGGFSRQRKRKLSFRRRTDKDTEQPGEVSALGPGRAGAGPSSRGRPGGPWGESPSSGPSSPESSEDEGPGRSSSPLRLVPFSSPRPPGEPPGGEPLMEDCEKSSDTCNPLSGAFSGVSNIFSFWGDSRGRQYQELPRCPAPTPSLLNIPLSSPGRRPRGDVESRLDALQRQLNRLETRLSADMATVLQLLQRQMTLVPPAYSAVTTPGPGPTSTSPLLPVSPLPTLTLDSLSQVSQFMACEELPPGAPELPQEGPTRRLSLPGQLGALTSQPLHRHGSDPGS
T1 sequence (P31645 whole entry): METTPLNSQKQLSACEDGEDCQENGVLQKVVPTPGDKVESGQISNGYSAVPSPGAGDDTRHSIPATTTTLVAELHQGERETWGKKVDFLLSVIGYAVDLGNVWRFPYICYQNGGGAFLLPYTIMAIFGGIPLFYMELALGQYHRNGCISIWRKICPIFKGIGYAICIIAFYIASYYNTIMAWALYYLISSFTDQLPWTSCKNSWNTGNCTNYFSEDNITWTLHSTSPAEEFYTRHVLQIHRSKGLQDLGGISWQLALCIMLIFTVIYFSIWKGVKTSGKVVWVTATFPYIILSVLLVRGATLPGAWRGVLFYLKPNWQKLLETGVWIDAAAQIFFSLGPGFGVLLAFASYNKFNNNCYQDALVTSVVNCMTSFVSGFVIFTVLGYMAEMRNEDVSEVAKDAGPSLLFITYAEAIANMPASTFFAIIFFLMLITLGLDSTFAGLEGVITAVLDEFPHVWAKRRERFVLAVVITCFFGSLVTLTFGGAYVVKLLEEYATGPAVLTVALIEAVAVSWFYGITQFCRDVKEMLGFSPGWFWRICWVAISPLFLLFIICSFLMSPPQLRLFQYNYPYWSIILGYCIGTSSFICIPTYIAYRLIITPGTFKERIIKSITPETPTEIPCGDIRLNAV

For `OCCc1cc(-c2cncc(OC[C@@H]3CCN3)c2)on1` [LF-3-88, 2-[5-[5-(2(S)-azetidinylmethoxyl)-3-pyridyl]-3-isoxazolyl]ethanol], the inhibition – broadly, the relative decrease from the control value, in per cent – at 10 µM in [1] was -0.2%; in [2] it was 8.8%; in data set [3], 39.5%; in data set [5] it was 4.2%; in [6], 5.8%; in data set [7] it was 3%. Also, the inhibition at 10 µM is -1.8% in data set [9]; 6.8% in [10]; 6.8% in data set [11]; 28.3% in data set [13]; 1.1% in [14]. Further, the “agonist activity at α7-nAChRs (whole-cell)” value in data set [4] is on record as “no agonist activity”. Moreover, the “effect of coapplication with choline at α7-nAChRs (whole-cell)” value in [4] (10 mmol/L choline) is “no effect”. In [4] (2-min pretreatment), the “inhibition of activation by 10 mmol/L choline at α7-nAChRs (whole-cell)” value is on record as “slightly inhibit; also recorded: only weakly”. Also, the “CYP2C9 Inhibition” value in data set [8] is recorded as 4%. Moreover, the “profile in hERG inhibition assay” value in [12] is listed as “favorable profile”.
